In paper PMC6277767, “Broad and Region-Specific Impacts of the Synthetic Cannabinoid CP 55,940 in Adolescent and Adult Female Mouse Brains” (Frontiers in Molecular Neuroscience, 2018):

Tested on: CD1 female mouse brain lipidome
Experiment: Brain-region lipid levels (HPLC/MS/MS lipidomics) 2 h after single i.p. 3 mg/kg CP 55,940 vs vehicle
Type: in vivo
Protocol: The Bloomington Institutional Animal Care and Use Committee of Indiana University reviewed and approved the animal procedures. Female mice from the CD1 strain were utilized to match our study examining THC’s effects on the brain lipidome ([Leishman et al., 2018]). Mice were given a single i.p. injection of either 3 mg/kg CP or 1:1:18 cremophor:ethanol:saline vehicle (please refer to the section “3 mg/kg CP Is Relevant for Synthetic Cannabinoid Abuse and Has Stronger Effects on the Female Mouse Brain Lipidome During Adolescence” for a justification of dose and use of female mice). Three different age groups were given injections: PND 35 and PND 50 adolescents, and adult mice (PND 113). At least eight mice in each age group received CP and at least eight received vehicle. Matching the THC study time course ([Leishman et al., 2018]), mice were sacrificed via rapid decapitation 2 h after injection. Brains were immediately removed and flash-frozen in liquid nitrogen, and then stored at -80°C until dissections were performed. Brains were dissected on an ice-cold dissection plate into the following regions: STR, HIPP, CER, THAL, CTX, HYP, MID, and STEM. These abbreviations for these brain areas will be used exclusively when discussing the results generated by these specific dissections. Each dissected area was immediately placed in liquid nitrogen and then stored at -80°C until used for lipid extraction.
Tissue extracts were performed as previously described ([Bradshaw et al., 2006]; [Stuart et al., 2013]; [Raboune et al., 2014]; [Leishman et al., 2016a],[b], [2017], [2018]). First, samples were shock frozen in liquid nitrogen, weighed, and transferred to a centrifuge tube. The mass of the largest sample was multiplied by 50 to determine how many milliliters of HPLC-grade methanol (Fisher, Fair Lawn, NJ, United States) to add. Then, samples were spiked with 500 pmol deuterium-labeled NAGly (d8NAGly; Cayman Chemical, Ann Arbor, MI, United States). Samples were placed on ice in darkness for 2 h then individually homogenized and centrifuged at 19,000 × g for 20 min at 20°C. Supernatants were diluted with HPLC water (purified in house) to make a solution of 75% water, 25% supernatant. Lipids were partially purified on C18 solid phase extraction columns (Agilent, Palo Alto, CA, United States). A series of four elutions with 1.5 mL of 60%, 75%, 85%, and 100% methanol were collected ([Stuart et al., 2013]; [Leishman et al., 2016a],[b], [2018]).
As previously described ([Bradshaw et al., 2006]; [Tan et al., 2006]; [Smoum et al., 2010]; [Stuart et al., 2013]; [Tortoriello et al., 2013]; [Raboune et al., 2014]; [Leishman et al., 2016a],[b], [2017], [2018]), samples were analyzed using an Applied Biosystems API 3000 triple quadrupole mass spectrometer with electrospray ionization (Foster City, CA, United States). Using an Agilent XDB-C18 reversed phase analytical column and optimized mobile phase gradients, 20 μL from each elution were chromatographed. Two Shimadzu 10ADvp pumps (Columbia, MD, United States) provided the pressure for gradient elution. Mobile phase A: 20% methanol, 80% water (v/v) and 1 mM ammonium acetate (Sigma, St. Louis, MO, United States). Mobile phase B: 100% methanol, 1 mM ammonium acetate. Every method run began with 0% mobile phase B, reached 100% mobile phase B flowing at 0.2 mL/min, and gradually returned to 0% mobile phase B.
This screening library will be referred to as the lipidome when discussing data from this study. HPLC/MS/MS data were analyzed using Analyst software (Applied Biosystems) ([Bradshaw et al., 2006]; [Tan et al., 2006]; [Stuart et al., 2013]; [Tortoriello et al., 2013]; [Raboune et al., 2014]; [Leishman et al., 2016a],[b], [2017], [2018]). Chromatograms (Supplementary Figure 3) were generated by determining the retention time of analytes from the analytical column with a [M-1] or [M+1] parent peak and a fragmentation peak corresponding to the programmed values. […]

CCCCCCC(C)(C)c1ccc([C@@H]2C[C@H](O)CC[C@H]2CCCO)c(O)c1 [CP 55,940]
total changes in lipid levels across the eight regions (PND 35): 231 | changes in lipid levels that were decreases (PND 35, eight regions): 152 | 2-arachidonoyl glycerol level vs vehicle (PND 35 CER): ↓ (1-1.49 times lower than vehicle) | 2-linoleoyl glycerol level vs vehicle (PND 35 CER): ↓ (1-1.49 times lower than vehicle) | 6-ketoPGF1α level vs vehicle (PND 35 CER): ↓↓ (1.50-1.99 times lower than vehicle) | Arachidonic acid level vs vehicle (PND 35 CER): ↓ (1-1.49 times lower than vehicle) | N-arachidonoyl GABA level vs vehicle (PND 35 CER): ↓ (1-1.49 times lower than vehicle) | N-arachidonoyl alanine level vs vehicle (PND 35 CER): ↓ (1-1.49 times lower than vehicle) | N-arachidonoyl glycine level vs vehicle (PND 35 CER): ↓ (1-1.49 times lower than vehicle) | N-arachidonoyl methionine level vs vehicle (PND 35 CER): ↓↓ (1.50-1.99 times lower than vehicle) | N-arachidonoyl serine level vs vehicle (PND 35 CER): ↓ (1-1.49 times lower than vehicle) | N-arachidonoyl taurine level vs vehicle (PND 35 CER): ↓ (1-1.49 times lower than vehicle) | N-arachidonoyl tyrosine level vs vehicle (PND 35 CER): ↓ (1-1.49 times lower than vehicle) | N-docosahexaenoyl GABA level vs vehicle (PND 35 CER): ↓ (1-1.49 times lower than vehicle) | N-docosahexaenoyl alanine level vs vehicle (PND 35 CER): ↓ (1-1.49 times lower than vehicle) | N-docosahexaenoyl glycine level vs vehicle (PND 35 CER): ↓ (1-1.49 times lower than vehicle) | N-docosahexaenoyl leucine level vs vehicle (PND 35 CER): ↑ (1-1.49 times higher than vehicle) | N-docosahexaenoyl serine level vs vehicle (PND 35 CER): ↓ (1-1.49 times lower than vehicle) | N-docosahexaenoyl tyrosine level vs vehicle (PND 35 CER): ↓ (1-1.49 times lower than vehicle) | N-linoleoyl glycine level vs vehicle (PND 35 CER): ↓ (1-1.49 times lower than vehicle) | N-linoleoyl leucine level vs vehicle (PND 35 CER): ↑ (1-1.49 times higher than vehicle) | N-linoleoyl phenylalanine level vs vehicle (PND 35 CER): ↑ (1-1.49 times higher than vehicle) | N-oleoyl GABA level vs vehicle (PND 35 CER): ↓ (1-1.49 times lower than vehicle) | N-oleoyl ethanolamine level vs vehicle (PND 35 CER): ↓ (1-1.49 times lower than vehicle) | N-oleoyl leucine level vs vehicle (PND 35 CER): ↑ (1-1.49 times higher than vehicle) | N-oleoyl phenylalanine level vs vehicle (PND 35 CER): ↑ (1-1.49 times higher than vehicle) | N-palmitoyl leucine level vs vehicle (PND 35 CER): ↑↑ (1.50-1.99 times higher than vehicle) | N-palmitoyl phenylalanine level vs vehicle (PND 35 CER): ↑ (1-1.49 times higher than vehicle) | N-palmitoyl proline level vs vehicle (PND 35 CER): ↓ (1-1.49 times lower than vehicle) | N-palmitoyl serine level vs vehicle (PND 35 CER): ↓ (1-1.49 times lower than vehicle) | N-palmitoyl tyrosine level vs vehicle (PND 35 CER): ↑ (1-1.49 times higher than vehicle) | N-palmitoyl valine level vs vehicle (PND 35 CER): ↑↑ (1.50-1.99 times higher than vehicle) | 2-palmitoyl glycerol level vs vehicle (PND 35 CTX): ↑↑ (1.50-1.99 times higher than vehicle) | 6-ketoPGF1α level vs vehicle (PND 35 CTX): ↓ (1-1.49 times lower than vehicle) | N- stearoyl valine level vs vehicle (PND 35 CTX): ↑ (1-1.49 times higher than vehicle) | N-arachidonoyl GABA level vs vehicle (PND 35 CTX): ↓ (1-1.49 times lower than vehicle) | N-arachidonoyl alanine level vs vehicle (PND 35 CTX): ↓ (1-1.49 times lower than vehicle) | N-arachidonoyl glycine level vs vehicle (PND 35 CTX): ↓ (1-1.49 times lower than vehicle) | N-arachidonoyl methionine level vs vehicle (PND 35 CTX): ↓↓ (1.50-1.99 times lower than vehicle) | N-arachidonoyl phenylalanine level vs vehicle (PND 35 CTX): ↓ (1-1.49 times lower than vehicle) | N-arachidonoyl serine level vs vehicle (PND 35 CTX): ↓ (1-1.49 times lower than vehicle) | N-arachidonoyl taurine level vs vehicle (PND 35 CTX): ↓ (1-1.49 times lower than vehicle) | N-arachidonoyl tyrosine level vs vehicle (PND 35 CTX): ↓ (1-1.49 times lower than vehicle) | N-docosahexaenoyl GABA level vs vehicle (PND 35 CTX): ↓ (1-1.49 times lower than vehicle) | N-docosahexaenoyl glycine level vs vehicle (PND 35 CTX): ↓ (1-1.49 times lower than vehicle) | N-docosahexaenoyl leucine level vs vehicle (PND 35 CTX): ↑↑ (1.50-1.99 times higher than vehicle) | N-docosahexaenoyl serine level vs vehicle (PND 35 CTX): ↓↓ (1.50-1.99 times lower than vehicle) | N-docosahexaenoyl valine level vs vehicle (PND 35 CTX): ↑ (1-1.49 times higher than vehicle) | N-linoleoyl GABA level vs vehicle (PND 35 CTX): ↓ (1-1.49 times lower than vehicle) | N-linoleoyl glycine level vs vehicle (PND 35 CTX): ↓ (1-1.49 times lower than vehicle) | N-oleoyl GABA level vs vehicle (PND 35 CTX): ↓ (1-1.49 times lower than vehicle) | N-oleoyl alanine level vs vehicle (PND 35 CTX): ↓ (1-1.49 times lower than vehicle) | N-oleoyl glycine level vs vehicle (PND 35 CTX): ↓ (1-1.49 times lower than vehicle) | N-oleoyl leucine level vs vehicle (PND 35 CTX): ↑ (1-1.49 times higher than vehicle) | N-oleoyl methionine level vs vehicle (PND 35 CTX): ↓ (1-1.49 times lower than vehicle) | N-oleoyl valine level vs vehicle (PND 35 CTX): ↑ (1-1.49 times higher than vehicle) | N-palmitoyl leucine level vs vehicle (PND 35 CTX): ↑↑ (1.50-1.99 times higher than vehicle) | N-palmitoyl serine level vs vehicle (PND 35 CTX): ↓ (1-1.49 times lower than vehicle) | N-palmitoyl tyrosine level vs vehicle (PND 35 CTX): ↑ (1-1.49 times higher than vehicle) | N-palmitoyl valine level vs vehicle (PND 35 CTX): ↑↑ (1.50-1.99 times higher than vehicle) | N-stearoyl serine level vs vehicle (PND 35 CTX): ↓ (1-1.49 times lower than vehicle) | N-stearoyl tyrosine level vs vehicle (PND 35 CTX): ↑ (1-1.49 times higher than vehicle) | PGF2α level vs vehicle (PND 35 CTX): ↑ (1-1.49 times higher than vehicle) | phosphoLEA level vs vehicle (PND 35 CTX): ↑↑ (1.50-1.99 times higher than vehicle) | 2-arachidonoyl glycerol level vs vehicle (PND 35 HIPP): ↓ (1-1.49 times lower than vehicle) | 2-linoleoyl glycerol level vs vehicle (PND 35 HIPP): ↓↓ (1.50-1.99 times lower than vehicle) | 2-oleoyl glycerol level vs vehicle (PND 35 HIPP): ↓ (1-1.49 times lower than vehicle) | 6-ketoPGF1α level vs vehicle (PND 35 HIPP): ↑ (1-1.49 times higher than vehicle) | Arachidonic acid level vs vehicle (PND 35 HIPP): ↓ (1-1.49 times lower than vehicle) | Linoleic acid level vs vehicle (PND 35 HIPP): ↓ (1-1.49 times lower than vehicle) | N- stearoyl valine level vs vehicle (PND 35 HIPP): ↑ (1-1.49 times higher than vehicle) | N-arachidonoyl GABA level vs vehicle (PND 35 HIPP): ↓↓ (1.50-1.99 times lower than vehicle) | N-arachidonoyl alanine level vs vehicle (PND 35 HIPP): ↓ (1-1.49 times lower than vehicle) | N-arachidonoyl ethanolamine level vs vehicle (PND 35 HIPP): ↓ (1-1.49 times lower than vehicle) | N-arachidonoyl glycine level vs vehicle (PND 35 HIPP): ↓ (1-1.49 times lower than vehicle) | N-arachidonoyl phenylalanine level vs vehicle (PND 35 HIPP): ↓ (1-1.49 times lower than vehicle) | N-arachidonoyl serine level vs vehicle (PND 35 HIPP): ↓↓↓ (2-2.99 times lower than vehicle) | N-arachidonoyl taurine level vs vehicle (PND 35 HIPP): ↓ (1-1.49 times lower than vehicle) | N-docosahexaenoyl GABA level vs vehicle (PND 35 HIPP): ↓↓ (1.50-1.99 times lower than vehicle) | N-docosahexaenoyl alanine level vs vehicle (PND 35 HIPP): ↓ (1-1.49 times lower than vehicle) | N-docosahexaenoyl ethanolamine level vs vehicle (PND 35 HIPP): ↓ (1-1.49 times lower than vehicle) | N-docosahexaenoyl glycine level vs vehicle (PND 35 HIPP): ↓ (1-1.49 times lower than vehicle) | N-docosahexaenoyl leucine level vs vehicle (PND 35 HIPP): ↑ (1-1.49 times higher than vehicle) | N-docosahexaenoyl serine level vs vehicle (PND 35 HIPP): ↓ (1-1.49 times lower than vehicle) | N-linoleoyl GABA level vs vehicle (PND 35 HIPP): ↓↓ (1.50-1.99 times lower than vehicle) | N-linoleoyl alanine level vs vehicle (PND 35 HIPP): ↓ (1-1.49 times lower than vehicle) | N-oleoyl GABA level vs vehicle (PND 35 HIPP): ↓↓ (1.50-1.99 times lower than vehicle) | N-oleoyl alanine level vs vehicle (PND 35 HIPP): ↓ (1-1.49 times lower than vehicle) | N-oleoyl ethanolamine level vs vehicle (PND 35 HIPP): ↓ (1-1.49 times lower than vehicle) | N-oleoyl glycine level vs vehicle (PND 35 HIPP): ↓ (1-1.49 times lower than vehicle) | N-oleoyl methionine level vs vehicle (PND 35 HIPP): ↓ (1-1.49 times lower than vehicle) | N-oleoyl valine level vs vehicle (PND 35 HIPP): ↑ (1-1.49 times higher than vehicle) | N-palmitoyl alanine level vs vehicle (PND 35 HIPP): ↓ (1-1.49 times lower than vehicle) | N-palmitoyl ethanolamine level vs vehicle (PND 35 HIPP): ↓ (1-1.49 times lower than vehicle) | N-palmitoyl leucine level vs vehicle (PND 35 HIPP): ↑ (1-1.49 times higher than vehicle) | N-palmitoyl phenylalanine level vs vehicle (PND 35 HIPP): ↑ (1-1.49 times higher than vehicle) | N-palmitoyl tyrosine level vs vehicle (PND 35 HIPP): ↑ (1-1.49 times higher than vehicle) | N-palmitoyl valine level vs vehicle (PND 35 HIPP): ↑ (1-1.49 times higher than vehicle) | N-stearoyl GABA level vs vehicle (PND 35 HIPP): ↓ (1-1.49 times lower than vehicle) | N-stearoyl alanine level vs vehicle (PND 35 HIPP): ↓ (1-1.49 times lower than vehicle) | N-stearoyl glycine level vs vehicle (PND 35 HIPP): ↓ (1-1.49 times lower than vehicle) | Oleic Acid level vs vehicle (PND 35 HIPP): ↓ (1-1.49 times lower than vehicle)
